Patent publication US20130269058A1, “PLANTS RESISTANT TO FUNGAL PATHOGENS AND METHODS FOR PRODUCTION THEREOF” (GENOPLANTE-VALOR, priority 2010, published 2013)

Legend:
[1] = system: WAK91 gene expression; experiment: Chitin sprayed on healthy rice plants; WAK91 expression by QRT-PCR normalized by actin; type: in vivo, rice (Oryza sativa L., cultivar Nipponbare)
Method: (§1) FIG. 2: Chitin induces WAK91 expression. Chitin fragments (two concentrations) were sprayed on healthy rice plants. Chitin alone is sufficient to induce WAK91 (up to 4×) in entire plants after 15 minutes. The PR5 and PDX223 classical defense genes are induced later. (A) The expression value of the WAK91, PR5 and PDX223 gene expression (normalized by actin) was measured at the indicated time after treatment. (B) The expression value after chitin treatment was divided by the expression value in untreated plants and the ratio was log transformed.
(§2) Gene expression was performed using Quantitative RT-PCR as described in Vergne et al (2007). For RT-QPCR applications, frozen tissue were ground in liquid nitrogen. Approximately 500 μl of powder was then treated with 1 ml of TRIZOL supplied by Invitrogen, vortexed for 30 s and incubated at room temperature for 15 minutes. […] Two microlitres of cDNA (dilution 1/10) were then used for quantitative RT-PCR. Quantitative RT-PCR mixtures contained PCR buffer, dNTP (0.25 mM), MgCl2 (2.5 mM), forward and reverse primers ([…]), 1 U of HotGoldStar polymerase and SYBR Green PCR mix as per the manufacturer's recommendations (Eurogentec, Seraing, Belgium). […] The quantitative RT-PCR (QRT-PCR) reactions were performed using a MX3000P machine (Stratagene) and data were extracted using the MX3000P software. […]

[2] = system: PR5 and PDX223 classical defense genes; experiment: Chitin sprayed on healthy rice plants; defense gene expression by QRT-PCR normalized by actin; type: in vivo, rice (Oryza sativa L., cultivar Nipponbare); conditions: chitin fragments sprayed on healthy rice plants; timing relative to WAK91 induction
Method: as §1, §2

## chitin
[1]; chitin fragments (two concentrations) sprayed on healthy rice plants, entire plants, after 15 minutes, versus untreated plants
  induction of WAK91 expression: up to 4 ×
[1]; chitin used as described in Miya et al (2007), FIG. 2
  WAK91 induction (in words): sufficient to cause WAK91 induction
[2]
  induction of PR5 and PDX223 defense genes (in words): induced later
